In test [1] the test system is Plasmodium falciparum. As to the kind of experiment: Resistance modification index, ratio of compound IC10 to chloroquine IC50 in presence of IC10 compound for chloroquine-resistant Plasmodium falciparum W2. The test is classed as functional.
Test [2] has as its system Plasmodium falciparum. As to the kind of experiment: Antiplasmodial activity against chloroquine-resistant Plasmodium falciparum W2 by parasite lactate dehydrogenase assay. The format is functional, organism-based.
Test [3] deals with Plasmodium falciparum. As to the kind of experiment: Resistance modification index, ratio of IC50 for chloroquine in presence of compound to IC50 for chloroquine alone for chloroquine-resistant Plasmodium falciparum W2. The format is functional.
Test [4] relates to Plasmodium falciparum. As to the kind of experiment: Inhibition of chloroquine-resistant Plasmodium falciparum […] CRT expressed in Xenopus laevis oocytes assessed as [3H]-chloroquine uptake after 1 to 2 hrs. The following applies: Oocyte.
The test system of test [5] is Plasmodium falciparum. As to the kind of experiment: Antiplasmodial activity against chloroquine-resistant Plasmodium falciparum W2 at 15.2 uM by parasite lactate dehydrogenase assay. The test is classed as functional, organism-based.

pIC50: −log10 of the molar value. Active and inactive are the calls of the source. The rule behind the calls is not given here.

For the molecule `COc1ccc(CN(C)Cc2ccccc2CNC=O)cc1`, the “Ratio IC50” value in the test with Plasmodium falciparum [1] is listed as 0.32. Further, in the test on Plasmodium falciparum [2], it took 12 µM to reach the 10% level (IC10) and the pIC50 (usually the negative decadic logarithm of the IC50, by convention in mol/L) is 4.54. Also, the “Ratio IC50” value in the test on Plasmodium falciparum [3] is reported as 1.22.

For the molecule `COc1ccc(CCN(C)CCCC(C#N)(c2ccc(OC)c(OC)c2)C(C)C)cc1OC` (configuration not stated) [VERAPAMIL], the pIC50 in the test with Plasmodium falciparum [4] was 4.52. The “Ratio IC50” value in the test on Plasmodium falciparum [3] was found to be 0.26.

On to `COc1ccc(CN(C)Cc2ccc(CNC=O)cc2)cc1`, for which the “Ratio IC50” value with Plasmodium falciparum [1] is listed as 0.46; in the test with Plasmodium falciparum [3] it was 1.22. Also, in the test on Plasmodium falciparum [2], the IC10 – broadly, the concentration needed for an effect of 10% – was 16 µM. In the test on Plasmodium falciparum [2], this molecule gave a pIC50 of 4.43.

In the test on Plasmodium falciparum [2], `CN(Cc1ccc(CN)cc1)Cc1ccc(N(C)C)cc1` had a pIC50 of 4.93. For the same molecule, the “Ratio IC50” value in the test with Plasmodium falciparum [3] is reported as 0.21.

In the case of `COc1ccc(CN(C)Cc2cccc(CNC=O)c2)cc1`, in the test with Plasmodium falciparum [1], the “Ratio IC50” value came out at 0.51. Further, in the test on Plasmodium falciparum [2], the 10% effect level (IC10) was put at 9 µM and the pIC50 was 4.32. In addition, the “Ratio IC50” value with Plasmodium falciparum [3] is given as 1.19.

As to `CN(Cc1ccc(Cl)cc1)Cc1cccc(CN)c1`, the pIC50 in the test on Plasmodium falciparum [4] (read-out: IC50) was 4.00; in the test with Plasmodium falciparum [2] it was 4.52. For the same molecule, the “Ratio IC50” value in the test on Plasmodium falciparum [3] turned out to be 0.31.

`CN(Cc1ccc(CNC=O)cc1)Cc1ccc(N(C)C)cc1`: the figures for the “Ratio IC50” value in the test with Plasmodium falciparum [1] and in the test with Plasmodium falciparum [3] were 0.46 and 1.36, respectively. The pIC50 in the test on Plasmodium falciparum [4] (read-out: IC50) was 3.18; in the test on Plasmodium falciparum [2], 4.48. In the test with Plasmodium falciparum [2], this molecule gave an IC10 of 15.2 µM.

With `CN(Cc1ccccc1)Cc1cccc(CNC=O)c1`, the “Ratio IC50” value in the test on Plasmodium falciparum [1] is 0.29. In the test with Plasmodium falciparum [2], this molecule gave an IC10 of 9.7 µM and a pIC50 of 4.68. Besides, the “Ratio IC50” value with Plasmodium falciparum [3] is listed as 0.84.

`CN(Cc1ccccc1)Cc1cccc(CN)c1` had a pIC50 in the test on Plasmodium falciparum [2] of 5.55. In the test on Plasmodium falciparum [3], the “Ratio IC50” value came out at 0.08.

With `CN(Cc1ccc(N(C)C)cc1)Cc1cccc(CN)c1`, the pIC50 in the test on Plasmodium falciparum [2] was 4.52. Besides, the “Ratio IC50” value with Plasmodium falciparum [3] came out at 0.24.

Turning to `CN(Cc1ccccc1)Cc1ccc(CNC=O)cc1`, the “Ratio IC50” value in the test on Plasmodium falciparum [1] worked out at 0.43. In addition, in the test with Plasmodium falciparum [2], it took 18 µM to reach the 10% level (IC10) and the pIC50 is 4.25. Besides, the “Ratio IC50” value in the test with Plasmodium falciparum [3] stood at 1.13.

Turning to `COc1ccc(CN(C)Cc2cccc(CN)c2)cc1`, the pIC50 in the test with Plasmodium falciparum [2] was 5.17. Moreover, in the test on Plasmodium falciparum [3], the “Ratio IC50” value is recorded as 0.25.

Take `CN(Cc1ccccc1)Cc1ccccc1CN`: the pIC50 is 4.62 in the test on Plasmodium falciparum [4] (read-out: IC50) and 5.39 in the test with Plasmodium falciparum [2]. In addition, the “Ratio IC50” value with Plasmodium falciparum [3] came out at 0.03.

On to `CN(Cc1ccc(N(C)C)cc1)Cc1cccc(CNC=O)c1`, for which the inhibition entry in the test with Plasmodium falciparum [5] was “inactive”. Moreover, the “Ratio IC50” value in the test with Plasmodium falciparum [1] is recorded as 1; with Plasmodium falciparum [3] it was 0.62. For the same molecule, in the test on Plasmodium falciparum [2], the pIC50 is 4.77.

Consider `CN(Cc1ccc(Cl)cc1)Cc1ccc(CNC=O)cc1`, for which the “Ratio IC50” value in the test on Plasmodium falciparum [1] is reported as 0.46; in the test with Plasmodium falciparum [3] it was 0.9. Besides, the 10% effect level in the test with Plasmodium falciparum [2] (IC10) was put at 5.4 µM. The molecule also showed a pIC50 in the test with Plasmodium falciparum [2] of 4.54.

`CN(Cc1ccc(Cl)cc1)Cc1ccccc1CNC=O`: in the test with Plasmodium falciparum [1], the “Ratio IC50” value turned out to be 0.34. In the test on Plasmodium falciparum [2], it took 12 µM to reach the 10% level (IC10) and the pIC50 is 3.92. Also, the “Ratio IC50” value with Plasmodium falciparum [3] was determined as 1.07.

`COc1ccc(CN(C)Cc2ccccc2CN)cc1`: in the test on Plasmodium falciparum [2], the pIC50 is < 3.63. In addition, the “Ratio IC50” value with Plasmodium falciparum [3] is on record as 0.35.

For the molecule `CN(Cc1ccc(N(C)C)cc1)Cc1ccccc1CN`, the pIC50 in the test on Plasmodium falciparum [2] is 4.43. Further, the “Ratio IC50” value in the test on Plasmodium falciparum [3] was determined as 0.36.

On to `CN(Cc1ccc(N(C)C)cc1)Cc1ccccc1CNC=O`, for which the “Ratio IC50” value was found to be 0.49 with Plasmodium falciparum [1] and 1 with Plasmodium falciparum [3]. In the test on Plasmodium falciparum [2], the IC10 came out at 15 µM. In addition, the pIC50 with Plasmodium falciparum [2] is 4.38.

Turning to `COc1ccc(CN(C)Cc2ccc(CN)cc2)cc1`, in the test on Plasmodium falciparum [2], the pIC50 is 4.04. Moreover, the “Ratio IC50” value with Plasmodium falciparum [3] was found to be 0.33.

Take `CN(Cc1ccc(Cl)cc1)Cc1ccccc1CN`: the pIC50 in the test on Plasmodium falciparum [2] was 5.24. Further, the “Ratio IC50” value with Plasmodium falciparum [3] is on record as 0.096.

For `CN(Cc1ccccc1)Cc1ccccc1CNC=O`, the “Ratio IC50” value in the test on Plasmodium falciparum [1] amounted to 0.44. In the test on Plasmodium falciparum [2], this molecule had a 10% effect concentration (IC10) of 1.7 µM and a pIC50 of 4.96. Moreover, the “Ratio IC50” value in the test on Plasmodium falciparum [3] is 0.75.

As to `CN(Cc1ccc(Cl)cc1)Cc1ccc(CN)cc1`, the pIC50 is 3.85 in the test on Plasmodium falciparum [4] (read-out: IC50) and 4.20 in the test on Plasmodium falciparum [2]. For the same molecule, the “Ratio IC50” value with Plasmodium falciparum [3] is listed as 0.25.

`CN(Cc1ccccc1)Cc1ccc(CN)cc1` showed a pIC50 with Plasmodium falciparum [2] of 4.54. Also, in the test with Plasmodium falciparum [3], the “Ratio IC50” value is reported as 0.24.

Regarding `CN(Cc1ccc(Cl)cc1)Cc1cccc(CNC=O)c1`, in the test with Plasmodium falciparum [1], the “Ratio IC50” value is given as 0.51. Moreover, in the test on Plasmodium falciparum [2], the IC10 was 4 µM and the pIC50 was 4.80.

These data come from ChEMBL document CHEMBL1770111, “A series of structurally simple chloroquine chemosensitizing dibemethin derivatives that inhibit chloroquine transport by PfCRT” (Eur J Med Chem, 2011).
